target: TACE (Homo sapiens (Human), UniProt P78536); experiment: TACE inhibition test (in vitro); assay type: biochemical; conditions: fluorescent synthetic substrate, 37° C., 1.5 hours
Description: The nucleotide sequence of TACE has been reported by Moss et al. (Moss, M. L. et al., Nature 1997, 385, 733-736). Accordingly, the cDNA of TACE was obtained according to the prescribed method from THP-1 cells or the like, and then incorporated the cDNA into an expression vector. Next, this vector was transformed into mammalian cells or insect cells, and TACE expression was obtained.
The TACE inhibition test was carried out by measuring TACE activity in the presence and the absence of the test substance using the thus-obtained TACE as an enzyme, and a fluorescent synthetic substrate Nma(N-methylanthranilic acid)-Leu-Ala-Gln-Ala-Val-Arg-Ser-Ser-Lys(Dnp(dinitrophenyl))-D-Arg-NH2 (SEQ ID NO: 1) including the TACE-cleaved sequence of a membrane-bound TNF as a substrate. The TACE inhibition test method is shown below.
Namely, 90 μL of an enzyme solution prepared with an assay buffer A (50 mM tris-hydrochloric acid buffer (pH 7.5) including 200 mM sodium chloride, 5 mM calcium chloride, 10 μM zinc sulfate, and 2 mg/mL bovine serum albumin) and 90 μL of a fluorescent synthetic substrate prepared with an assay buffer B (50 mM tris-hydrochloric acid buffer (pH 7.5) including 200 mM sodium chloride, 5 mM calcium chloride, 10 μM zinc sulfate, and 0.05% PLURONIC F-68) were mixed together, and reacted at 37° C. for 1.5 hours. Enzyme activity was then determined by measuring with a fluorescence intensity meter (Labsystems, Fluoroskan Ascent) at an excitation wavelength of 355 nm and a measurement wavelength of 460 nm.
From the enzyme activity in the presence or the absence of the test substance, the inhibition rate was determined, and the 50% inhibitiory concentration (IC50) of the test substance was calculated.

TACE, sequence (P78536 215-824): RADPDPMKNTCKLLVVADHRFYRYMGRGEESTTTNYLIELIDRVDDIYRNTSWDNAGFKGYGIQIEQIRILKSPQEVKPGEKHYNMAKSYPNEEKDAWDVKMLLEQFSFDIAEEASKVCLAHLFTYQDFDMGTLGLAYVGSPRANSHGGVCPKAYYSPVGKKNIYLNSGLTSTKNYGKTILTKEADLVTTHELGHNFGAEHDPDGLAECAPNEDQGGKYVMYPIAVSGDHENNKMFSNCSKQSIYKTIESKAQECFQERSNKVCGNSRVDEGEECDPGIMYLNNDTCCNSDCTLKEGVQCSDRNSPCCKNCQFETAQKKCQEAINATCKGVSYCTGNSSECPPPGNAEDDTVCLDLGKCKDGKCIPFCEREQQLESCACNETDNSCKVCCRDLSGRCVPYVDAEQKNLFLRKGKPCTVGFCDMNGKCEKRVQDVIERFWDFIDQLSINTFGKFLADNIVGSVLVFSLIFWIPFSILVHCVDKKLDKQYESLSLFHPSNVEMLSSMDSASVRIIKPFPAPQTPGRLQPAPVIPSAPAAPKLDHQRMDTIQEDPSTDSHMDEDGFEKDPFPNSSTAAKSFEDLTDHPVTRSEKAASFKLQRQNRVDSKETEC

IC50 [nM]	Structure (SMILES)
100 to 1000	CCc1cccn(CC2(c3ccc(OC)cc3)NC(=O)NC2=O)c1=O (stereo not shown) [Compound I-53, 5-[(3-ethyl-2-oxopyridin-1(2H)-yl)methyl]-5-(4-methoxyphenyl)imidazolidine-2,4-dione]
< 100	Cc1ccc(C2(Cn3cccc(C)c3=O)NC(=O)NC2=O)c(F)c1F (stereo not shown) [Compound I-128]
< 100	Cc1cccn(CC2(c3cccc(-c4ccncc4)c3)NC(=O)NC2=O)c1=O (stereo not shown) [Compound I-95]
< 100	O=C1NC(=O)C(Cn2ccccc2=O)(c2ccccc2)N1 (stereo not shown) [Compound I-46, 5-[(2-oxopyridin-1(2H)-yl)methyl]-5-phenylimidazolidine-2,4-dione]
100 to 1000	Cc1cccn(CC2(c3ccc(CCC4CCCCC4)cc3)NC(=O)NC2=O)c1=O (stereo not shown) [Compound I-118]
< 100	Cc1cccn(CC2(c3cccc(C(F)(F)F)c3)NC(=O)NC2=O)c1=O (stereo not shown) [Compound I-19]
< 100	COc1cc(C2(Cn3cccc(C)c3=O)NC(=O)NC2=O)ccc1F (stereo not shown) [Compound I-12, 5-(4-fluoro-3-methoxyphenyl)-5-[(3-methyl-2-oxopyridin-1(2H)-yl)methyl]imidazolidine-2,4-dione]
< 100	Cc1cccn(CC2(c3ccc(OC(C)C)cc3)NC(=O)NC2=O)c1=O (stereo not shown) [Compound I-120]
< 100	N#Cc1ccc(C2(Cn3cccc(C(F)(F)F)c3=O)NC(=O)NC2=O)cc1 (stereo not shown) [Compound I-142]
100 to 1000	Cc1cccn(CC2(c3ccc(/C=C/C4CCCCC4)cc3)NC(=O)NC2=O)c1=O (stereo not shown) [Compound I-109]
< 100	Cc1cccn(CC2(c3cc(F)c(F)c(F)c3)NC(=O)NC2=O)c1=O (stereo not shown) [Compound I-44, 5-[(3-methyl-2-oxopyridin-1(2H)-yl)methyl]-5-(3,4,5-trifluorophenyl)imidazolidine-2,4-dione]
< 100	Cc1cccn(CC2(c3ccc(CCc4ccccn4)cc3)NC(=O)NC2=O)c1=O (stereo not shown) [Compound I-115]
< 100	COc1cccc(-c2ccc(C3(Cn4cccc(C)c4=O)NC(=O)NC3=O)cc2)c1 (stereo not shown) [Compound I-73]
< 100	O=C1NC(=O)C(Cn2cccc(F)c2=O)(c2ccc(F)c(F)c2)N1 (stereo not shown) [Compound I-145]
< 100	Cc1cccn(CC2(c3ccc4c(c3)OCCCO4)NC(=O)NC2=O)c1=O (stereo not shown) [Compound I-105]
< 100	CCc1ccc(C2(Cn3cccc(C)c3=O)NC(=O)NC2=O)cc1 (stereo not shown) [Compound I-116]
100 to 1000	O=C1NC(=O)C(Cn2cccc(CO)c2=O)(c2ccc(F)c(F)c2)N1 (stereo not shown) [Compound I-148]

Further lines, the molecule ahead of its results:

Structure (SMILES)	IC50 [nM]
COc1ccc(C2(Cn3cccc(Br)c3=O)NC(=O)NC2=O)cc1 (stereo not shown) [Compound I-52, 5-[(3-bromo-2-oxopyridin-1(2H)-yl)methyl]-5-(4-methoxyphenyl)imidazolidine-2,4-dione]	< 100
COc1ccc(C2(Cn3cccc(C)c3=O)NC(=O)NC2=O)cc1F (stereo not shown) [Compound I-14, 5-(3-fluoro-4-methoxyphenyl)-5-[(3-methyl-2-oxopyridin-1(2H)-yl)methyl]imidazolidine-2,4-dione]	< 100
CCCc1ccc(C2(Cn3cccc(C)c3=O)NC(=O)NC2=O)cc1 (stereo not shown) [Compound I-45, 5-[(3-methyl-2-oxopyridin-1(2H)-yl)methyl]-5-(4-propylphenyl)imidazolidine-2,4-dione]	< 100
Cc1cccn(CC2(c3ccc(Sc4ccccc4)c(F)c3)NC(=O)NC2=O)c1=O (stereo not shown) [Compound I-103]	< 100
Cc1cccn(CC2(c3ccc(Oc4ccc(F)cc4F)cc3)NC(=O)NC2=O)c1=O (stereo not shown) [Compound I-97]	< 100
COc1ccc(OC(F)(F)F)cc1C1(Cn2cccc(C)c2=O)NC(=O)NC1=O (stereo not shown) [Compound I-24, 5-[2-methoxy-5-(trifluoromethoxy)phenyl]-5-[(3-methyl-2-oxopyridin-1(2H)-yl)methyl]imidazolidine-2,4-dione]	100 to 1000
COc1ccc(C)cc1C1(Cn2cccc(C)c2=O)NC(=O)NC1=O (stereo not shown) [Compound I-76]	100 to 1000
Cc1cccn(CC2(c3ccc4ccccc4c3)NC(=O)NC2=O)c1=O (stereo not shown) [Compound I-56]	< 100
COc1cccc(C2(Cn3cccc(C)c3=O)NC(=O)NC2=O)c1 (stereo not shown) [Compound I-4, 5-(3-methoxyphenyl)-5-[(3-methyl-2-oxopyridin-1(2H)-yl)methyl]imidazolidine-2,4-dione]	< 100
Cc1cccn(CC2(c3ccc(Oc4ccccc4)c(F)c3)NC(=O)NC2=O)c1=O (stereo not shown) [Compound I-87]	< 100
Cc1cccn(CC2(c3ccc(Oc4cccnc4)cc3)NC(=O)NC2=O)c1=O (stereo not shown) [Compound I-101]	< 100
Cc1cccn(CC2(c3ccc(-c4ccncc4)cc3)NC(=O)NC2=O)c1=O (stereo not shown) [Compound I-31, 5-[(3-methyl-2-oxopyridin-1(2H)-yl)methyl]-5-[4-(pyridin-4-yl)phenyl]imidazolidine-2,4-dione]	< 100
Cc1cccn(CC2(c3cccc(C#CCN(C)C)c3)NC(=O)NC2=O)c1=O (stereo not shown) [Compound I-71]	< 100
Cc1cccn(CC2(c3ccc4c(c3)CCCC4)NC(=O)NC2=O)c1=O (stereo not shown) [Compound I-77]	< 100
Cc1cccn(CC2(c3ccc(Oc4cccc(C(F)(F)F)c4)cc3)NC(=O)NC2=O)c1=O (stereo not shown) [Compound I-100]	< 100
Cc1cccn(CC2(c3ccc(-c4cccnc4)cc3)NC(=O)NC2=O)c1=O (stereo not shown) [Compound I-32, 5-[(3-methyl-2-oxopyridin-1(2H)-yl)methyl]-5-[4-(pyridin-3-yl)phenyl]imidazolidine-2,4-dione]	< 100
Cc1cccn(CC2(c3cccc(O)c3)NC(=O)NC2=O)c1=O (stereo not shown) [Compound I-54, 5-(3-hydroxyphenyl)-5-[(3-methyl-2-oxopyridin-1(2H)-yl)methyl]imidazolidine-2,4-dione]	100 to 1000
Cc1cccn(CC2(c3ccc(Oc4cccc(F)c4)c(F)c3)NC(=O)NC2=O)c1=O (stereo not shown) [Compound I-112]	< 100
COc1ccc(C2(Cn3cccc(F)c3=O)NC(=O)NC2=O)cc1 (stereo not shown) [Compound I-133]	< 100
O=C1NC(=O)C(Cn2cccc(F)c2=O)(c2ccc(Cc3ccccc3)cc2)N1 (stereo not shown) [Compound I-152]	< 100
Cc1cccn(CC2(c3ccc(OC(F)F)cc3)NC(=O)NC2=O)c1=O (stereo not shown) [Compound I-78]	< 100
Cc1cccn(CC2(c3ccc(C(F)(F)F)cc3)NC(=O)NC2=O)c1=O (stereo not shown) [Compound I-89]	< 100
Cc1cccn(CC2(c3ccc(Cl)c(Cl)c3)NC(=O)NC2=O)c1=O (stereo not shown) [Compound I-125]	< 100
O=C1NC(=O)C(Cn2cccc(Br)c2=O)(c2ccc(F)c(F)c2)N1 (stereo not shown) [Compound I-147]	< 100
COc1ccc(OC)c(C2(Cn3cccc(C)c3=O)NC(=O)NC2=O)c1 (stereo not shown) [Compound I-20, 5-(2,5-dimethoxyphenyl)-5-[(3-methyl-2-oxopyridin-1(2H)-yl)methyl]imidazolidine-2,4-dione]	< 100
COc1ccc(Oc2ccc(C3(Cn4cccc(C)c4=O)NC(=O)NC3=O)cc2)cc1 (stereo not shown) [Compound I-81]	< 100
COc1ccc(C2(Cn3ccccc3=O)NC(=O)NC2=O)cc1 (stereo not shown) [Compound I-47, 5-(4-methoxyphenyl)-5-[(2-oxopyridin-1(2H)-yl)methyl]imidazolidine-2,4-dione]	< 100
Cc1cccn(CC2(c3cc(F)ccc3F)NC(=O)NC2=O)c1=O (stereo not shown) [Compound I-154]	< 100
O=C1NC(=O)C(Cn2ccccc2=O)(c2cc(F)c(F)c(F)c2)N1 (stereo not shown) [Compound I-157]	< 100
